Results as given in ChEMBL document CHEMBL1145319, “Modeling and synthesis of non-cyclic derivatives of GPI-1046 as potential FKBP ligands with neurotrophic properties” (Bioorg Med Chem Lett, 2006).

Experiments:
[1] = target: T1, Peptidyl-prolyl cis-trans isomerase FKBP4 (Homo sapiens) (UniProt Q02790); test: Neurotrophic activity in chick dorsal root ganglion at 100 pM in presence of NGF after 48 hrs relative to control; type: functional, tissue-based; conditions: Gallus gallus, target entry is the homologue from another species
T1 sequence (whole entry): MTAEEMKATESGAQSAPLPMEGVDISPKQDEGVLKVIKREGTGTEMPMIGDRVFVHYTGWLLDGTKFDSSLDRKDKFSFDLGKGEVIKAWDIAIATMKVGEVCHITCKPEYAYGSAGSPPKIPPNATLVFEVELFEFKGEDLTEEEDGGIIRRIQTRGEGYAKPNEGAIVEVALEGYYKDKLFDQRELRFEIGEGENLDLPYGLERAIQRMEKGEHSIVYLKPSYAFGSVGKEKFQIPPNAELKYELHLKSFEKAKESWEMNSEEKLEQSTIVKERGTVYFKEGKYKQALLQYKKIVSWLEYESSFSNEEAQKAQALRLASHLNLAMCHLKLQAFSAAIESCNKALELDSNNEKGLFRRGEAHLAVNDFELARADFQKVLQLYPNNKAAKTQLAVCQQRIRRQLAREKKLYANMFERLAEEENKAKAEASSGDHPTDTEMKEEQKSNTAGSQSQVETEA

[2] = target: T1, Peptidyl-prolyl cis-trans isomerase FKBP4 (Homo sapiens); test: Neurotrophic activity in chick dorsal root ganglion at 1 pM in presence of NGF after 48 hrs relative to control; type: functional, tissue-based; conditions: Gallus gallus, target entry is the homologue from another species

| Compound | Activity [1] [%] | Activity [2] [%] |
| --- | --- | --- |
| CC(C)[C@H](NC(=O)C(=O)C(C)(C)C)C(=O)OCCCc1ccccc1 | 78 | 65 |
| CC(C)[C@H](NC(=O)C(=O)C(C)(C)C)C(=O)OCCCC1CCCCC1 | 45 | 136 |
| CC(C)C[C@H](NC(=O)C(=O)C(C)(C)C)C(=O)OCCCc1cccnc1 | 65 | 129 |
| CCC(C)(C)C(=O)C(=O)N[C@H](C(=O)OCCCc1ccccc1)C(C)C | 117 | 39 |
| CCC(C)(C)C(=O)C(=O)N[C@H](C(=O)OCCCc1cccnc1)C(C)C | 120 | 100 |
| CC(C)C[C@H](NC(=O)C(=O)C(C)(C)C)C(=O)OCCCC1CCCCC1 | 101 | 123 |
| CCC(C)(C)C(=O)C(=O)N1CCC[C@H]1C(=O)OCCCc1cccnc1 | 120 |  |
| CC(C)C[C@H](NC(=O)C(=O)C(C)(C)C)C(=O)OCCCc1ccccc1 | 92 | 73 |
| CC(C)[C@H](NC(=O)C(=O)C(C)(C)C)C(=O)OCCCOc1ccccc1 | 93 | 85 |
| CC(C)[C@H](NC(=O)C(=O)C(C)(C)C)C(=O)OCCCc1cccnc1 | 136 | 115 |
| CC(C)C[C@H](NC(=O)C(=O)C(C)(C)C)C(=O)OCCCOc1ccccc1 | 93 | 108 |
| CCC(C)(C)C(=O)C(=O)N[C@H](C(=O)OCCc1ccccc1C(F)(F)F)C(C)C | 207 | 123 |
